The values below come from patent US20250163061A1 (Bala Therapeutics, Inc., priority 2021, published 2025).

Bounds are passed on as bounds.

Common to all, as to assay type: cell-based
One data set deals with MV4-11. As to the kind of experiment: MV4-11 cellular growth inhibition assay (CellTiter-Glo). The conditions noted are these: Homo sapiens, 168 h, MV4-11 cells, 7 days of incubation. The protocol: (§1) HEK293 (Institute of Cytology Russian Academy of Science), MV4-11 (ATCC, CRL-9591), MOLM-13 (AcceGen, ABC-TC517S) were seeded at a density of 500 cells per well (HEK293) and 2000 cells per well (MV4-11, MOLM-13) in a 384-well clear bottom plate (Greiner Cat #781090) in 45 μl total volume of DMEM (PanEco, Cat #C420, Russia) or RPMI (PanEco, Cat #C330, Russia) with 10% FBS (HyClone Cat #SV30160.03). HEK293 were allowed to adhere overnight at 37° C., 5% CO2. 500× compounds solutions in DMSO (Sigma Cat #D2650) were prepared into Cmpnds plate (Diamond Well Plate, Axigen, Cat #P-384-120SQ-C-S) and DMSO only control was included. 1 μl of 500× compounds (Cmpnds plate) was added to 49 μl of culture medium into Dilution plate (Diamond Well Plate, Axigen, Cat #P-384-120SQ-C-S), mixed and then 5 μl of 10× compounds solutions were transferred to cells followed by centrifugation at 100 g for 1 min. Final DMSO concentration was 0.2%. After 3 days of incubation, 10 μl of 1× compounds were added to cells. After 7 days of incubation, 12 μl of CellTiter-Glo (Promega, CAT #G7572) were added to the cells, plate was centrifuged at 100 g for 1 min and luminescence signal was measured using Microplate Reader (CLARIOStar).

In another data set the test system is MOLM-13. As to the kind of experiment: MOLM-13 cellular growth inhibition assay (CellTiter-Glo). The conditions noted are these: Homo sapiens, 168 h, MOLM-13 cells, 7 days of incubation. The protocol: as §1
For orientation: Cellular ATP, detected with luciferase, serves as a proxy for viable cell number.

The nature of data set [1]: HEK293 cellular growth inhibition assay (CellTiter-Glo). The conditions noted are these: human, HEK293 cells, 7 days of incubation. The protocol: as §1

For the compound `Cc1c(CN2CCC3(CC2)CN(c2ncnc4cnc(CC(F)(F)F)cc24)C3)ccc2c1cc(C#N)n2CC(C)N1CCN(S(C)(=O)=O)CC1` (stereo not drawn) [Compound 45, 4-Methyl-1-{2-[4-(methylsulfonyl)piperazin-1-yl]propyl}-5-({2-[6-(2,2,2-trifluoroethyl)pyrido[3,4-d]pyrimidin-4-yl]-2,7-diazaspiro[3.5]non-7-yl}methyl)-1H-indole-2-carbonitrile], the CC50 (usually the concentration giving 50% cytotoxicity) in the data set with MV4-11 was in the range of 100 to 500 nM; in the data set on MOLM-13, 1000 to 5000 nM. This compound also gave a CC50 at 7 days in data set [1] of 5000 to 10000 nM.

Regarding `C=CC(=O)N1CCN(CCCCn2c(C#N)cc3c(C)c(CN4CCC5(CC4)CN(c4ncnc6ccc(CC(F)(F)F)cc46)C5)ccc32)CC1` [Compound 65, 1-[4-(4-Acryloylpiperazin-1-yl)butyl]-4-methyl-5-({2-[6-(2,2,2-trifluoroethyl)quinazolin-4-yl]-2,7-diazaspiro[3.5]non-7-yl}methyl)-1H-indole-2-carbonitrile], the figures for the CC50 with MV4-11 and in the data set on MOLM-13 were 100 to 500 nM and 1000 to 5000 nM, respectively. For the same compound, in data set [1], the CC50 at 7 days was ≤ 2000 nM.

Consider `Cc1c(CN2CCC3(CC2)CN(c2ncnc4ccc(CC(F)(F)F)cc24)C3)ccc2c1cc(C#N)n2C(C)CCN1CCN(S(C)(=O)=O)CC1` (stereo not drawn) [Compound 13, 4-Methyl-1-{1-methyl-3-[4-(methylsulfonyl)piperazin-1-yl]propyl}-5-({2-[6-(2,2,2-trifluoroethyl)quinazolin-4-yl]-2,7-diazaspiro[3.5]non-7-yl}methyl)-1H-indole-2-carbonitrile], for which the CC50 is ≤ 100 nM in the data set on MV4-11 and 500 to 1000 nM in the data set with MOLM-13. The same compound returned a CC50 at 7 days in data set [1] of 5000 to 10000 nM.

For `Cc1c(CN2CCC3(CC2)CN(c2ncnc4ccc(CC(F)(F)F)cc24)C3)ccc2c1cc(C#N)n2CC1CCC(=O)NC1` (stereo not drawn) [Compound 72, 4-Methyl-1-[(6-oxopiperidin-3-yl)methyl]-5-({2-[6-(2,2,2-trifluoroethyl)quinazolin-4-yl]-2,7-diazaspiro[3.5]non-7-yl}methyl)-1H-indole-2-carbonitrile], the half-maximal cytotoxic concentration (CC50) with MV4-11 lay in the range of 100 to 500 nM; with MOLM-13, 500 to 1000 nM. Moreover, the cytotoxic concentration (CC50) at 7 days in data set [1] was ≤ 2000 nM.

Take `Cc1c(CN2CCC3(CC2)CN(c2ncnc4ccc(CC(F)(F)F)cc24)C3)ccc2c1cc(C#N)n2C[C@H]1CC[C@H](NS(C)(=O)=O)CC1` [Compound 40, N-(trans-4-{[2-Cyano-4-methyl-5-({2-[6-(2,2,2-trifluoroethyl)quinazolin-4-yl]-2,7-diazaspiro[3.5]non-7-yl}methyl)-1H-indol-1-yl]methyl}cyclohexyl)methanesulfonamide]: the CC50 in the data set on MV4-11 is 100 to 500 nM; in the data set with MOLM-13, 1000 to 5000 nM. Further, the 50% cytotoxic concentration (CC50) at 7 days in data set [1] lay within 10000 to 20000 nM.

Regarding `Cc1c(CN2CCC3(CC2)CN(c2ncnc4ccc(CC(F)(F)F)cc24)C3)ccc2c1cc(C#N)n2CC12CC(NC=O)(C1)C2` [Compound 95, (3-{[2-Cyano-4-methyl-5-({2-[6-(2,2,2-trifluoroethyl)quinazolin-4-yl]-2,7-diazaspiro[3.5]non-7-yl}methyl)-1H-indol-1-yl]methyl}bicyclo[1.1.1]pent-1-yl)formamide], the CC50 in the data set with MV4-11 was ≤ 100 nM; in the data set with MOLM-13 it was 100 to 500 nM. This compound also registered a CC50 at 7 days in data set [1] of 2000 to 5000 nM.

In the case of `Cc1c(CN2CCC3(CC2)CN(c2ncnc4ccc(CC(F)(F)F)cc24)C3)ccc2c1cc(C#N)n2CCN1CCOCC1` [Compound 97, 4-Methyl-1-(2-morpholin-4-ylethyl)-5-({2-[6-(2,2,2-trifluoroethyl)quinazolin-4-yl]-2,7-diazaspiro[3.5]non-7-yl}methyl)-1H-indole-2-carbonitrile], the CC50 lay within 500 to 1000 nM in the data set on MV4-11 and 1000 to 5000 nM with MOLM-13. This compound also yielded a CC50 at 7 days in data set [1] of 2000 to 5000 nM.

For `Cc1c(CN2CCC3(CC2)CN(c2ncnc4ncc(CC(F)(F)F)cc24)C3)ccc2c1cc(C#N)n2CC(C)N1CCN(S(C)(=O)=O)CC1` (stereo not drawn) [Compound 89, 4-Methyl-1-{2-[4-(methylsulfonyl)piperazin-1-yl]propyl}-5-({2-[6-(2,2,2-trifluoroethyl)pyrido[2,3-d]pyrimidin-4-yl]-2,7-diazaspiro[3.5]non-7-yl}methyl)-1H-indole-2-carbonitrile], the figures for the CC50 in the data set with MV4-11 and with MOLM-13 were ≤ 100 nM and 500 to 1000 nM, respectively. In addition, the cytotoxic concentration (CC50) at 7 days in data set [1] is ≤ 2000 nM.

Take `CC(=O)NC12CC(Cn3c(C#N)cc4c(C)c(CN5CCC6(CC5)CN(c5ncnc7ccc(CC(F)(F)F)cc57)C6)ccc43)(C1)C2` [Compound 59, N-[3-[[2-Cyano-4-methyl-5-[[2-[6-(2,2,2-trifluoroethyl)quinazolin-4-yl]-2,7-diazaspiro[3.5]nonan-7-yl]methyl]indol-1-yl]methyl]-1-bicyclo[1.1.1]pentanyl]acetamide]: the CC50 in the data set on MV4-11 and in the data set on MOLM-13 was ≤ 100 nM throughout. Also, in data set [1], the cytotoxic concentration (CC50) at 7 days lay in the range of 2000 to 5000 nM.

In the case of `CNC(=O)NC12CC(Cn3c(C#N)cc4c(C)c(CN5CCC6(CC5)CN(c5ncnc7ccc(CC(F)(F)F)cc57)C6)ccc43)(C1)C2` [Compound 60, 1-[3-[[2-Cyano-4-methyl-5-[[2-[6-(2,2,2-trifluoroethyl)quinazolin-4-yl]-2,7-diazaspiro[3.5]nonan-7-yl]methyl]indol-1-yl]methyl]-1-bicyclo[1.1.1]pentanyl]-3-methyl-urea], the CC50 with MV4-11 and in the data set with MOLM-13 was ≤ 100 nM each time. In data set [1], this compound returned a CC50 at 7 days of 2000 to 5000 nM.

As for `Cc1c(CN2CCC3(CC2)CN(c2ncnc4ccc(CC(F)(F)F)cc24)C3)ccc2c1cc(C#N)n2CC12CC(NS(N)(=O)=O)(C1)C2` [Compound 61, 4-[7-[[2-cyano-4-methyl-1-[[3-(sulfamoylamino)-1-bicyclo[1.1.1]pentanyl]methyl]indol-5-yl]methyl]-2,7-diazaspiro[3.5]nonan-2-yl]-6-(2,2,2-trifluoroethyl)quinazoline], the CC50 is ≤ 100 nM in the data set with MV4-11 and 100 to 500 nM with MOLM-13. Further, in data set [1], the CC50 at 7 days lay within 5000 to 10000 nM.

For `Cc1c(CN2CCC3(CC2)CN(c2ncnc4ccc(CC(F)(F)F)cc24)C3)ccc2c1cc(C#N)n2CC1CCNC(=O)C1` (stereo not drawn) [Compound 22, 4-Methyl-1-[(2-oxopiperidin-4-yl)methyl]-5-({2-[6-(2,2,2-trifluoroethyl)quinazolin-4-yl]-2,7-diazaspiro[3.5]non-7-yl}methyl)-1H-indole-2-carbonitrile], the CC50 fell in the range of 100 to 500 nM in the data set on MV4-11 and 500 to 1000 nM with MOLM-13. The CC50 at 7 days in data set [1] lay within 2000 to 5000 nM.

Consider `Cc1c(CN2CCC3(CC2)CN(c2ncnc4ccc(CC(F)(F)F)cc24)C3)ccc2c1cc(C#N)n2C[C@@H](C)N1CCN(S(C)(=O)=O)[C@@H](C)C1` [Compound 27, 4-methyl-1-[(2R)-2-[(3S)-3-methyl-4-methylsulfonyl-piperazin-1-yl]propyl]-5-[[2-[6-(2,2,2-trifluoroethyl)quinazolin-4-yl]-2,7-diazaspiro[3.5]nonan-7-yl]methyl]indole-2-carbonitrile], for which the CC50 with MV4-11 is ≤ 100 nM; in the data set on MOLM-13, 100 to 500 nM. The CC50 at 7 days in data set [1] lay within 5000 to 10000 nM.

`Cc1c(CN2CCC3(CC2)CN(c2ncnc4ccc(CC(F)(F)F)cc24)C3)ccc2c1cc(C#N)n2CC1CCNC(=O)CO1` (stereo not drawn) [Compound 2, 4-Methyl-1-[(3-oxo-1,4-oxazepan-7-yl)methyl]-5-[[2-[6-(2,2,2-trifluoroethyl)quinazolin-4-yl]-2,7-diazaspiro[3.5]nonan-7-yl]methyl]indole-2-carbonitrile]: the CC50 in the data set on MV4-11 was in the range of 100 to 500 nM; in the data set with MOLM-13, 1000 to 5000 nM. The same compound displayed a CC50 at 7 days in data set [1] of 2000 to 5000 nM.
